In this assay the test system is L1210 leukemia ip in BDF1 mice, survival T/C. Kind of assay: NCI In Vivo Anticancer Drug Screen. Data for tumor model L1210 Leukemia (intraperitoneal) in B6D2F1 (BDF1) mice. The settings on record: endpoint: mean survival time, higher = longer survival. The procedure, abridged: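 Antitumor effect is assessed in tumor-bearing animals. Survival in the compound arm is compared with a vehicle-dosed control arm and expressed as their quotient.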

[1] abbreviates: dose: 100.0 mg/kg/injection, schedule: Q04DX003 (ip), vehicle: saline.
The mark [2] stands for this setting: dose: 200.0 mg/kg/injection, schedule: Q04DX003 (ip), vehicle: saline.
Where [3] appears, read: dose: 400.0 mg/kg/injection, schedule: Q04DX003 (ip), vehicle: saline.
Setting [4] is: dose: 100.0 mg/kg/injection, schedule: Q01DX009 (ip), vehicle: Klucel (hydroxypropylcellulose) (HPC).
Where [5] appears, read: dose: 200.0 mg/kg/injection, schedule: Q01DX009 (ip), vehicle: Klucel (hydroxypropylcellulose) (HPC).
[6] abbreviates: dose: 400.0 mg/kg/injection, schedule: Q01DX009 (ip), vehicle: Klucel (hydroxypropylcellulose) (HPC).
Where [7] appears, read: dose: 100.0 mg/kg/injection, schedule: Q04DX003 (ip), vehicle: Klucel (hydroxypropylcellulose) (HPC).
Where [8] appears, read: dose: 200.0 mg/kg/injection, schedule: Q04DX003 (ip), vehicle: Klucel (hydroxypropylcellulose) (HPC).
The mark [9] stands for this setting: dose: 400.0 mg/kg/injection, schedule: Q04DX003 (ip), vehicle: Klucel (hydroxypropylcellulose) (HPC).
The mark [10] stands for this setting: dose: 100.0 mg/kg/injection, schedule: Q01DX001 (ip), vehicle: saline.
Where [11] appears, read: dose: 200.0 mg/kg/injection, schedule: Q01DX001 (ip), vehicle: saline.

SMILES strings stand for the structures. “And” between values parts separate entries of the source, which are not always exact repeats. Identical values can stand only once. Inconclusive results and toxic doses are left out. Peptide text beside a SMILES is read from it. * marks the point of attachment. Trt = c1ccc(C(c2ccccc2)(c2ccccc2)*)cc1

Regarding `CN1CCCCCC1=O`, the T/C was 100 % of control under setting [1], 111 % of control under setting [2] and 101 % of control under setting [3].
As for `O=C(CSCCN1CCCCC1)N1c2ccccc2Sc2ccccc21`, the T/C runs as follows: (dose: 10.0 mg/kg/injection, schedule: Q01DX009 (ip), vehicle: saline) 102 % of control; (dose: 20.0 mg/kg/injection, schedule: Q01DX009 (ip), vehicle: saline) 100 % of control; (dose: 40.0 mg/kg/injection, schedule: Q01DX009 (ip), vehicle: saline) 96 % of control.
Regarding `CCCCCCCC/C=C\CCCCCCCCNP(=O)(OCCCCCCCCCCCC)OCCCCCCCCCCCC`, the T/C reads like this: (dose: 100.0 mg/kg/injection, schedule: Q04DX002 (ip), vehicle: saline with Tween-80) 101 % of control; (dose: 400.0 mg/kg/injection, schedule: Q04DX002 (ip), vehicle: saline with Tween-80) 86 % of control.
In the case of `Cc1cccc(C)c1/[N+]([O-])=C/c1ccc(Cl)cc1`, the T/C reads like this: (dose: 100.0 mg/kg/injection, schedule: Q01DX001 (ip), vehicle: Klucel (hydroxypropylcellulose) (HPC)) 101 % of control; (dose: 200.0 mg/kg/injection, schedule: Q01DX001 (ip), vehicle: Klucel (hydroxypropylcellulose) (HPC)) 98 % of control; (dose: 400.0 mg/kg/injection, schedule: Q01DX001 (ip), vehicle: Klucel (hydroxypropylcellulose) (HPC)) 108 % of control.
As to `CC(CO)CCC1OC2CC3C4CCC5CC(O)CCC5(C)C4CCC3(C)C2C1C` (configuration not stated), the T/C runs as follows: (dose: 100.0 mg/kg/injection, schedule: Q04DX002 (ip), vehicle: Klucel (hydroxypropylcellulose) (HPC)) 86 % of control; (dose: 200.0 mg/kg/injection, schedule: Q04DX002 (ip), vehicle: Klucel (hydroxypropylcellulose) (HPC)) 95 % of control; (dose: 400.0 mg/kg/injection, schedule: Q04DX002 (ip), vehicle: Klucel (hydroxypropylcellulose) (HPC)) 95 % of control.
Regarding `Nc1ncnc2c1ncn2C1OC(C(=O)NO)C(O)C1O` (configuration not stated), the T/C is 106 % of control (dose: 0.78 mg/kg/injection, schedule: Q01DX009 (ip), vehicle: saline); 104 % of control (dose: 1.56 mg/kg/injection, schedule: Q01DX005 (ip), vehicle: saline); 123 % of control (dose: 1.56 mg/kg/injection, schedule: Q01DX009 (ip), vehicle: saline); 121 % of control (dose: 3.12 mg/kg/injection, schedule: Q01DX005 (ip), vehicle: saline).
Turning to `O=C(Nc1ccccc1F)NC(CO)(CO)CO`, the T/C under setting [4] was 97 % of control, the T/C under setting [5] is 98 % of control and the T/C under setting [6] is 95 % of control.
For `N#CC(CC(=O)c1ccc2c(c1)OCO2)c1ccc2c(c1)OCO2` (configuration not stated), the T/C was 101 % of control under setting [4]; 95 % of control under setting [7]; 101 % of control under setting [5]; 98 % of control under setting [8]; 97 % of control under setting [6]; 101 % of control under setting [9].
As to `N#CC(C(=O)O)C1(C(C#N)C(=O)O)CCN(Cc2ccccc2)CC1` (configuration not stated), the T/C by setting is: (dose: 75.0 mg/kg/injection, schedule: Q01DX001 (ip), vehicle: carboxymethylcellulose (CMC)) 96 % of control; (dose: 150.0 mg/kg/injection, schedule: Q01DX001 (ip), vehicle: carboxymethylcellulose (CMC)) 100 % of control; (dose: 300.0 mg/kg/injection, schedule: Q01DX001 (ip), vehicle: carboxymethylcellulose (CMC)) 102 % of control.
`O=C(CC(NC(=O)OCc1ccccc1)C(=O)O)OCc1ccccc1` (configuration not stated): the T/C was 95 % of control (dose: 100.0 mg/kg/injection, schedule: Q01DX009 (ip), vehicle: saline sonified); 103 % of control (dose: 100.0 mg/kg/injection, schedule: Q01DX009 (ip), vehicle: saline with Tween-80); 97 % of control (dose: 100.0 mg/kg/injection, schedule: Q04DX003 (ip), vehicle: saline sonified); 94 % of control (dose: 200.0 mg/kg/injection, schedule: Q01DX009 (ip), vehicle: saline sonified); 94 % of control (dose: 200.0 mg/kg/injection, schedule: Q01DX009 (ip), vehicle: saline with Tween-80); 89 % of control (dose: 200.0 mg/kg/injection, schedule: Q04DX003 (ip), vehicle: saline sonified). Also, the T/C is, setting by setting: (dose: 400.0 mg/kg/injection, schedule: Q01DX009 (ip), vehicle: saline sonified) 90 % of control; (dose: 400.0 mg/kg/injection, schedule: Q01DX009 (ip), vehicle: saline with Tween-80) 94 % of control; (dose: 400.0 mg/kg/injection, schedule: Q04DX003 (ip), vehicle: saline sonified) 103 % of control.
Consider `Cc1ccc(NCCN(C)C)c2c(=O)c3ccccc3sc12`, for which the T/C reads like this: (dose: 9.3 mg/kg/injection, schedule: Q01DX Z (ip), vehicle: saline) 104 % of control; (dose: 14.0 mg/kg/injection, schedule: Q01DX Z (ip), vehicle: saline) 108 % of control; (dose: 21.0 mg/kg/injection, schedule: Q01DX Z (ip), vehicle: saline) 118 % of control; (dose: 28.0 mg/kg/injection, schedule: Q01DX Z (ip), vehicle: saline) 117 % of control; (dose: 42.0 mg/kg/injection, schedule: Q01DX Z (ip), vehicle: saline) 163 % of control; (dose: 50.0 mg/kg/injection, schedule: Q01DX001 (ip), vehicle: saline) 101 % of control. Further, the T/C is 115 % of control (dose: 84.0 mg/kg/injection, schedule: Q01DX Z (ip), vehicle: saline); 100 % of control (dose: 89.0 mg/kg/injection, schedule: Q01DX001 (ip), vehicle: saline); 101 % of control (dose: 93.0 mg/kg/injection, schedule: Q01DX Z (ip), vehicle: saline); 109 % of control under setting [10]; 107 % of control (dose: 100.0 mg/kg/injection, schedule: Q01DX Z (ip), vehicle: saline); 151 % of control (dose: 125.0 mg/kg/injection, schedule: Q01DX Z (ip), vehicle: carboxymethylcellulose (CMC)). The T/C was 117 % of control (dose: 133.0 mg/kg/injection, schedule: Q01DX001 (ip), vehicle: saline); 155 % of control and 212 % of control under setting [11].
Turning to `COC(=O)C(NC(=O)C(N)CSC(c1ccccc1)(c1ccccc1)c1ccccc1)C(C)C` (configuration not stated) (H-Cys(Trt)-Val-OMe; configuration not given here), the T/C is 104 % of control and 118 % of control (dose: 50.0 mg/kg/injection, schedule: Q01DX009 (ip), vehicle: saline); 109 % of control (dose: 100.0 mg/kg/injection, schedule: Q01DX009 (ip), vehicle: saline); 104 % of control (dose: 400.0 mg/kg/injection, schedule: Q01DX009 (ip), vehicle: saline).
On to `CC(Br)C1(c2cccc([N+](=O)[O-])c2)OCCO1` (configuration not stated), for which the T/C was 105 % of control under setting [1], 100 % of control under setting [2] and 108 % of control under setting [3].
For the molecule `O=C1CN(O)C(c2ccccc2)=c2cc(Cl)ccc2=N1`, the T/C reads like this: (dose: 25.0 mg/kg/injection, schedule: Q01DX009 (ip), vehicle: Klucel (hydroxypropylcellulose) (HPC)) 100 % of control; (dose: 25.0 mg/kg/injection, schedule: Q04DX003 (ip), vehicle: Klucel (hydroxypropylcellulose) (HPC)) 98 % of control; (dose: 50.0 mg/kg/injection, schedule: Q01DX009 (ip), vehicle: Klucel (hydroxypropylcellulose) (HPC)) 101 % of control; (dose: 50.0 mg/kg/injection, schedule: Q04DX003 (ip), vehicle: Klucel (hydroxypropylcellulose) (HPC)) 108 % of control; under setting [4], 95 % of control; under setting [7], 90 % of control. Besides, the T/C by setting is: under setting [5], 92 % of control; under setting [8], 93 % of control; under setting [6], 108 % of control; under setting [9], 98 % of control.
In the case of `Cc1ccc(S(=O)(=O)N(CC(=O)O)c2ccccc2-c2ccccc2)cc1`, the T/C runs as follows: under setting [10], 100 % of control; under setting [11], 89 % of control; (dose: 400.0 mg/kg/injection, schedule: Q01DX001 (ip), vehicle: saline) 100 % of control.
